In data set [1] the test system is BV-2. Briefly: Cytotoxicity against mouse BV2 cells at effective concentration after 20 hrs by MTT assay. The data set is classed as cell-based. Particulars: bv-2, 20 h. In general terms: Tetrazolium assays rely on reduction of a dye to a coloured formazan, in cell work by metabolically active cells.
Data set [2] concerns BV-2. Briefly: Inhibition of LPS-induced NO production in mouse BV2 cells after 20 hrs by Griess assay. The data set is classed as functional, cell-based. The settings on record: BV-2, 20 h. In general terms: The Griess reaction detects nitrite, a stable product of nitric oxide.

For orientation: IC50 means the point on the concentration scale where inhibition reaches its midpoint. Lower therefore signals higher potency. As for `CC(=O)O[C@@H]1[C@H]2[C@@H](OC(=O)c3cccnc3)[C@@H](C)C[C@]2(OC(C)=O)[C@@H](OC(C)=O)[C@]2(C)OC[C@]13C(=O)C=C[C@H](C(C)(C)OC(C)=O)[C@@H]23` [EUPHORBIALOID E], the Activity entry with BV-2 [1] is “Non-toxic”. The molecule also came in with an IC50 with BV-2 [2] of 33.7 µM.

Turning to `CCC(=O)O[C@@H]1[C@@H]2[C@@H](OC(C)=O)[C@@]34CO[C@@](C)([C@H](OC(=O)c5cccnc5)[C@@]2(OC(C)=O)C[C@@H]1C)[C@@H]3[C@@H]1[C@@H](C[C@]1(C)OC(C)=O)[C@@H](OC(=O)c1ccccc1)C4=O` [EUPHORBIALOID H], the Activity entry in the data set on BV-2 [1] is “Non-toxic”. In addition, half-maximal inhibition in the data set with BV-2 [2] (IC50) was put at 64.3 µM. In the case of `C=C(C)[C@H]1C=C[C@@H](OC(=O)c2ccccc2)[C@@]23CO[C@@](C)([C@H](OC(=O)c4cccnc4)[C@@]4(OC(C)=O)C[C@H](C)[C@H](OC(=O)CC)[C@@H]4[C@H]2OC(C)=O)[C@H]13`, the Activity entry in the data set on BV-2 [1] is listed as “Non-toxic”. The molecule also displayed an IC50 in the data set with BV-2 [2] of 74.3 µM. For `C=C(C)[C@H]1C=C[C@@H](OC(=O)c2cccnc2)[C@@]23CO[C@@](C)([C@H](OC(=O)c4cccnc4)[C@@]4(OC(C)=O)C[C@H](C)[C@H](OC(=O)CC)[C@@H]4[C@H]2OC(C)=O)[C@H]13`, in the data set with BV-2 [1], the Activity entry is “Non-toxic”. In the data set on BV-2 [2], this molecule registered an IC50 of 80.2 µM. On to `CCC(=O)O[C@@H]1[C@@H]2[C@@H](OC(=O)c3ccccc3)[C@@]3(COC(=O)c4cccnc4)[C@@H]([C@@H]4[C@H](C[C@H]3OC(C)=O)C4(C)C)[C@](C)(O)C(=O)[C@@]2(O)C[C@@H]1C` [EUPHORBIALOID A], for which the Activity result in the data set on BV-2 [1] is listed as “Non-toxic”. The molecule further yielded an IC50 in the data set with BV-2 [2] of 19.4 µM. As to `CCC(=O)O[C@@H]1[C@@H]2[C@@H](OC(C)=O)[C@@]34CO[C@@](C)([C@H](OC(C)=O)[C@@]2(O)C[C@@H]1C)[C@@H]3[C@@H]1[C@@H](C[C@]1(C)OC(C)=O)[C@@H](OC(=O)c1cccnc1)C4=O` [EUPHORBIALOID G], the Activity entry in the data set on BV-2 [1] is “Non-toxic”. In the data set on BV-2 [2], this molecule came in with an IC50 of 48.7 µM.

For the molecule `CC(=O)O[C@@H]1[C@H]2[C@@H](OC(=O)c3cccnc3)[C@](C)(OC(=O)C(C)C)C[C@]2(OC(C)=O)[C@H](OC(=O)c2ccccc2)[C@]2(C)OC[C@]13[C@H](OC(C)=O)C=C[C@H](C(C)(C)OC(C)=O)[C@@H]23` [EUPHORBIALOID J], the Activity entry in the data set with BV-2 [1] is on record as “Non-toxic”. Moreover, the midpoint of inhibition in the data set with BV-2 [2], the IC50, lay at 43.8 µM. `CCC(=O)O[C@@H]1[C@@H]2[C@@H](OC(C)=O)[C@@]34CO[C@@](C)([C@H](OC(=O)c5cccnc5)[C@@]2(OC(C)=O)C[C@@H]1C)[C@@H]3[C@@H](C(C)(C)OC(C)=O)C=CC4=O` [EUPHORBIALOID F]: the Activity result in the data set with BV-2 [1] is reported as “Non-toxic”. Further, the IC50 in the data set with BV-2 [2] turned out to be 36.5 µM. Turning to `CCC(=O)O[C@@H]1[C@@H]2[C@@H](OC(=O)c3ccccc3)[C@@]3(COC(=O)c4cccnc4)[C@@H]([C@@H]4[C@H](C[C@H]3OC(C)=O)C4(C)C)[C@](C)(OC(C)=O)C(=O)[C@@]2(O)C[C@@H]1C` [EUPHORBIALOID C], the Activity result in the data set with BV-2 [1] is reported as “Non-toxic”. Further, the IC50 in the data set with BV-2 [2] is 29.7 µM.

Consider `CSC(=N)N`, for which the IC50 in the data set on BV-2 [2] turned out to be 13.2 µM. Turning to `CCCC(=O)O[C@@H]1[C@@H]2[C@@H](OC(=O)c3ccccc3)[C@@]3(COC(=O)c4cccnc4)[C@@H]([C@@H]4[C@H](C[C@H]3OC(C)=O)C4(C)C)[C@](C)(OC(C)=O)C(=O)[C@@]2(O)C[C@@H]1C` [EUPHORBIALOID D], in the data set on BV-2 [1], the Activity entry is recorded as “Non-toxic”. The molecule further had an IC50 with BV-2 [2] of 35.2 µM.

Regarding `CCC(=O)O[C@@H]1[C@@H]2[C@@H](OC(C)=O)[C@@]34CO[C@@](C)([C@@H](OC(=O)c5ccccc5)[C@@]2(OC(C)=O)C[C@@]1(C)OC(=O)c1cccnc1)[C@@H]3[C@@H](C(C)(C)OC(C)=O)C=C[C@H]4OC(C)=O` [EUPHORBIALOID I], in the data set with BV-2 [1], the Activity result is reported as “Non-toxic”. This molecule also showed an IC50 with BV-2 [2] of 41.3 µM. Regarding `CC(=O)O[C@@H]1[C@@H]2[C@@H](OC(=O)c3ccccc3)[C@@]3(COC(=O)c4cccnc4)[C@@H]([C@@H]4[C@H](C[C@H]3OC(C)=O)C4(C)C)[C@](C)(O)C(=O)[C@@]2(O)C[C@@H]1C` [EUPHORBIALOID B], the Activity result in the data set on BV-2 [1] is given as “Non-toxic”. The molecule further gave an IC50 with BV-2 [2] of 15.6 µM.

For the origin of these results see ChEMBL document CHEMBL2029263, “New myrsinol diterpenes from Euphorbia prolifera and their inhibitory activities on LPS-induced NO production” (Bioorg Med Chem Lett, 2012).
